Reference: ChEMBL document CHEMBL2062495
Active and inactive are the calls of the source. The calls are words filed in the database; no cut-off is given here. Square brackets hold non-standard residues; d marks the D form. Peptide text beside a SMILES is read from it. * marks the point of attachment. Sta = CC(C)C[C@H](N)[C@@H](O)CC(=O)O; NMe2Val = CC(C)[C@@H](C(=O)*)N(C)C; dNMeF = CN[C@H](Cc1ccccc1)C(=O)O; dHiv = CC(C)[C@@H](O)C(=O)O; Hiv = CC(C)[C@H](O)C(=O)O

Key:
[1] = system: Dendritic cell; experiment: (§1) Inhibition of MHC class 2-dependent antigen processing in DO11.10 TCR transgenic mouse spleen CD11+ dendritic cells assessed as inhibition of whole ovalbumin-induced CD4+ T cell proliferation incubated for 1 hr prior to whole ovalbumin-challenge measured after 72 hrs by [3H]thymidine incorporation assay; type: functional, tissue-based
[2] = system: Dendritic cell; experiment: as §1, with “ovalbumin 323 to 339-induced” for “whole ovalbumin-induced”, “ovalbumin 323 to 339 challenge” for “whole ovalbumin-challenge”; type: functional, tissue-based

COC(=O)[C@@H]1CCCN1C(=O)[C@@H](Cc1ccccc1)N(C)C(=O)[C@H](C)NC(=O)[C@@H](NC(=O)C[C@H](O)[C@H](CC(C)C)NC(=O)[C@H](CC(N)=O)NC(=O)[C@H](CC(C)C)NC(=O)[C@H](OC(=O)[C@@H](OC(=O)[C@H](C(C)C)N(C)C)C(C)C)C(C)C)[C@@H](C)O (NMe2Val-[Hiv][dHiv]LN[Sta]TA[dNMeF]P-OMe)
inhibition [1]: inactive | inhibition [2]: inactive
